# Test results from patent US11046745B2, “Peptide mimotopes of the CD3 T-cell co-receptor epsilon chain and uses thereof” (BioNTech SE, priority 2015, dated 2021).
# pKd: −log10 of the molar value. Positions of bridges follow the written chain, without caps; N, C: chain ends. Residues, ends and D or L forms follow the SMILES beside them. No end group written: not given here. *: point of attachment. Biotin = O=C1N[C@H]2[C@H](CS[C@H]2CCCCC(=O)*)N1
# How the values were obtained:
# [1] = test system: TR66 antibody (CD3ε specific antibody, clone TR66); experiment: Binding analysis using biolayer interferometry (BLI), Octet Red, biotinylated peptides on streptavidin sensors; details: for Yes/no binding, BLI: 500 nM TR66 antibody, one concentration; for Binding of TR66 in detailed BLI analysis (FIG. 5): TR66 1.5625 to 100 nM, dissociation constant could not be fitted
# Description: FIG. 5. Comparative binding analysis of matured TR66 mimotopes aCD3-04-002 and aCD3-04-013 using biolayer interferometry (BLI) on an Octet Red system (fortéBIO). Biotinylated peptides were immobilized onto streptavidin (SA) sensors. After blocking with 1× blocking buffer and biocytin association and dissociaten rates of TR66 binding were recorded over a period of 2400 sec respectively. The antibody was used in a range of 1.5625 to 100 nM (1.5625, 3.125, 6.25, 12.5, 25, 50, 100 nM) for each analyzed peptide.
# Binding analysis was performed using streptavidin (SA) sensors on an Octet Red system (fortéBIO). 5 μg/ml of biotinylated peptides were used for loading (200 μl per sensor). […] Remained biotin binding sites on coated streptavidin sensors were blocked using 100 μg/ml biocytin (Sigma-Aldrich) for 5 minutes. For binding mode analysis of different peptides 500 nM TR66 antibody was used in the association step. For detailed analysis the antibody was used in a range of 1.5625 to 100 nM (1.5625, 3.125, 6.25, 12.5, 25, 50, 100 nM) for each analyzed peptide. The following program was used: • Baseline: 1000 rpm for 180 sec. • Load: 1000 rpm for 900 sec. • Baseline: 1000 rpm for 180 sec. • Blocking: 1000 rpm for 300 sec. • Association: 1000 rpm for 1200-2400 sec. • Dissociation: 1000 rpm for 1200-2400 sec.
# The peptides displaying the highest binding affinities from the peptide microarray experiments were synthesized by standard Fmoc-based solid-phase-synthesis protocols and purified (HPLC purity: >80%). The binding characteristics of each peptide were determined. In the first instance all peptides were analysed via biolayer interferometry (BLI) to get a first impression whether the respective variant has a significant binding property at all (yes/no binding, Table 2). At his point, only one TR66 concentration (500 nM) was tested. Except variants aCD3-04-010 and aCD3-04-012 all peptides show a measurable binding activity.
# [2] = biological target: TR66 antibody (CD3ε specific antibody, clone TR66); experiment: Binding analysis using peptide ELISA, biotinylated peptides on streptavidin plates, TR66; details: TR66; mean of at least two individual measurements; two-site saturation binding model; read-out: Apparent KD, ELISA
# Description: FIG. 3. Binding analysis of phage derived variants using a peptide based ELISA. Biotinylated peptides were immobilized on streptavidin plates (Nunc) in a concentration of 0.75 μg/ml. After blocking 30 μg/ml TR66 or an unrelated antibody (control ab) were added and incubated for 1 h at 37° C. Binding was detected with an alkaline phosphatase conjugated goat anti-human IgG antibody (Sigma) and the chromogenic substrate PNPP (para-nitrophenyl phosphate). All reactions were performed as duplicates. SD values are presented as error bars.
# For the detection of TR66 or OKT3 (Bio-X-Cell), the CD3 mimicking peptides were immobilized on streptavidin plates (Nunc) in a concentration of 0.75 μg/ml in PBS buffer for 1 hour at 37° C. Subsequently, the plate was washed three times with washing buffer (0.01% Tween-20 in PBS buffer) before it was blocked with 3% BSA in PBS overnight at 4° C. To detect TR66 or OKT3, the blocked plate was washed again three times with washing buffer followed by the addition of TR66 or OKT3 and incubation for 30 min at 37° C. After another washing step, it was incubated with an alkaline phosphatase conjugated Goat anti-human or anti-mouse IgG, Fe antibody (Jackson Immuno Research) for additional 30 min at 37° C. Finally, the plate was washed again before being incubated with 1.5 mg/ml of the substrate PNPP (para-nitrophenyl phosphate) in appropriate substrate buffer (1 M Diethanolamine, 0.05 mM MgCl2, 0.01% sodium azide, pH 9.8) for 30 min at RT in the dark. 3 M KOH was used to stop the enzymatic reaction. Absorbance was measured with a microplate reader (Infinite M200, Tecan). For dual wavelength analysis, 405 nm was chosen as measurement wavelength and 492 nm as reference wavelength. Absorbance values were calculated by subtraction of the measured values for the reference wavelength and for the measurement wavelength. Calculation of apparent KD values was done by fitting the data with Sigma Plot 10 using a two-site saturation binding model.
# [3] = test system: Muromonab-CD3 (Orthoclone OKT3), CD3-specific monoclonal antibody; experiment: Peptide ELISA for cross-reactivity to OKT3; type: binding, murine
# Description: FIG. 6. Comparative binding analysis of maturated TR66 mimotope aCD3-04-013 to approved antibody Muromanab-CD3 (Orthoclone OKT3®). Biotinylated peptides were immobilized on streptavidin plates (Nunc). After blocking different concentrations (0, 156, 312, 625, 1250, 5000 and 10000 ng/ml) of TR66, OKT3 or an unrelated antibody (control ab) were added and incubated for 1 h at 37° C. Binding was detected with an alkaline phosphatase conjugated goat anti-human IgG antibody (Sigma) and the chromogenic substrate PNPP (para-nitrophenyl phosphate). All reactions were performed as duplicates. SD values are presented as error bars.
# For the detection of TR66 or OKT3 (Bio-X-Cell), the CD3 mimicking peptides were immobilized on streptavidin plates (Nunc) in a concentration of 0.75 μg/ml in PBS buffer for 1 hour at 37° C. Subsequently, the plate was washed three times with washing buffer (0.01% Tween-20 in PBS buffer) before it was blocked with 3% BSA in PBS overnight at 4° C. To detect TR66 or OKT3, the blocked plate was washed again three times with washing buffer followed by the addition of TR66 or OKT3 and incubation for 30 min at 37° C. […] Absorbance was measured with a microplate reader (Infinite M200, Tecan). […] Absorbance values were calculated by subtraction of the measured values for the reference wavelength and for the measurement wavelength. […]
"Yes/no binding, BLI [1]",pKd [2],Binding of TR66 in detailed BLI analysis (FIG. 5) [1],"Binding of OKT3 to mimotope, ELISA titration (FIG. 6) ([3]; OKT3 titration 0-10000 ng/ml)","Affinity of OKT3 binding compared to TR66 binding, ELISA ([3]; different detection antibodies for TR66 and OKT3)",Molecule
No,–,–,–,–,ACTRPWDPQC-GGGS-K(Bio) (ACTRPWDPQCGGGSK(Biotin); disulfide 2-10 (inferred)) [aCD3-04-012]
Yes,6.79,–,–,–,"C[C@H](N)C(=O)N[C@H]1CSSC[C@@H](C(=O)NCC(=O)NCC(=O)NCC(=O)N[C@@H](CO)C(=O)N[C@@H](CCCCNC(=O)CCCC[C@@H]2SC[C@@H]3NC(=O)N[C@@H]32)C(=O)O)NC(=O)[C@H](C)NC(=O)[C@@H]2CCCN2C(=O)[C@H](CC(=O)O)NC(=O)CNC(=O)[C@@H]2CCCN2C(=O)[C@H](CCCNC(=N)N)NC(=O)[C@H]([C@@H](C)O)NC1=O [aCD3-04-008, ACTRPGDPAC-GGGS-K(Bio)] (H-ACTRPGDPACGGGSK(Biotin)-OH; disulfide 2-10)"
No,–,–,–,–,ACTR(NMI)GDPQC-GGGS-K(Bio) (ACTRLGDPQCGGGSK; not fully specified; N-methylisoleucine; GGGS linker; biotinylated lysine; MOD_RES (5)..(5) N-methylisoleucine; MOD_RES (15)..(15) K(Bio)) [aCD3-04-010]
Yes,7.11,concentration-dependent binding,–,–,"C[C@H](N)C(=O)N[C@H]1CSSC[C@@H](C(=O)NCC(=O)NCC(=O)NCC(=O)N[C@@H](CO)C(=O)N[C@@H](CCCCNC(=O)CCCC[C@@H]2SC[C@@H]3NC(=O)N[C@@H]32)C(=O)O)NC(=O)[C@H](CCC(N)=O)NC(=O)[C@@H]2CCCN2C(=O)[C@H](CC(=O)O)NC(=O)[C@H](CC(=O)O)NC(=O)[C@@H]2CCCN2C(=O)[C@H](CCCNC(=N)N)NC(=O)[C@H]([C@@H](C)O)NC1=O [aCD3-04-002, ACTRPDDPQC-GGGS-K(Bio)] (H-ACTRPDDPQCGGGSK(Biotin)-OH; disulfide 2-10)"
Yes,8.40,concentration-dependent binding,specific binding,slightly lower affinity,"C[C@H](N)C(=O)N[C@H]1CSSC[C@@H](C(=O)NCC(=O)NCC(=O)NCC(=O)N[C@@H](CO)C(=O)N[C@@H](CCCCNC(=O)CCCC[C@@H]2SC[C@@H]3NC(=O)N[C@@H]32)C(=O)O)NC(=O)[C@H](CCC(=O)O)NC(=O)[C@@H]2CCCN2C(=O)[C@H](CC(=O)O)NC(=O)[C@H](CC(=O)O)NC(=O)[C@@H]2CCCN2C(=O)[C@H](CCCNC(=N)N)NC(=O)[C@H]([C@@H](C)O)NC1=O [aCD3-04-013, ACTRPDDPEC-GGGS-K(Bio)] (H-ACTRPDDPECGGGSK(Biotin)-OH; disulfide 2-10)"
Yes,6.95,–,–,–,"C[C@H](N)C(=O)N[C@H]1CSSC[C@@H](C(=O)NCC(=O)NCC(=O)NCC(=O)N[C@@H](CO)C(=O)N[C@@H](CCCCNC(=O)CCCC[C@@H]2SC[C@@H]3NC(=O)N[C@@H]32)C(=O)O)NC(=O)[C@H](Cc2c[nH]c3ccccc23)NC(=O)[C@@H]2CCCN2C(=O)[C@H](CC(=O)O)NC(=O)[C@H](CC(=O)O)NC(=O)[C@@H]2CCCN2C(=O)[C@H](CCCNC(=N)N)NC(=O)[C@H]([C@@H](C)O)NC1=O [aCD3-04-014, ACTRPDDPWC-GGGS-K(Bio)] (H-ACTRPDDPWCGGGSK(Biotin)-OH; disulfide 2-10)"
Yes,6.52,–,–,–,"C[C@H](N)C(=O)N[C@H]1CSSC[C@@H](C(=O)NCC(=O)NCC(=O)NCC(=O)N[C@@H](CO)C(=O)N[C@@H](CCCCNC(=O)CCCC[C@@H]2SC[C@@H]3NC(=O)N[C@@H]32)C(=O)O)NC(=O)[C@H](CCC(N)=O)NC(=O)[C@@H]2CCCN2C(=O)[C@H](CC(=O)O)NC(=O)[C@H](CCC(=O)O)NC(=O)[C@@H]2CCCN2C(=O)[C@H](CCCNC(=N)N)NC(=O)[C@H]([C@@H](C)O)NC1=O [aCD3-04-007, ACTRPEDPQC-GGGS-K(Bio)] (H-ACTRPEDPQCGGGSK(Biotin)-OH; disulfide 2-10)"
Yes,6.78,–,–,–,"C[C@H](N)C(=O)N[C@H]1CSSC[C@@H](C(=O)NCC(=O)NCC(=O)NCC(=O)N[C@@H](CO)C(=O)N[C@@H](CCCCNC(=O)CCCC[C@@H]2SC[C@@H]3NC(=O)N[C@@H]32)C(=O)O)NC(=O)[C@H](Cc2ccc(O)cc2)NC(=O)[C@@H]2CCCN2C(=O)[C@H](CC(=O)O)NC(=O)CNC(=O)[C@@H]2CCCN2C(=O)[C@H](CCCNC(=N)N)NC(=O)[C@H]([C@@H](C)O)NC1=O [aCD3-04-009, ACTRPGDPYC-GGGS-K(Bio)] (H-ACTRPGDPYCGGGSK(Biotin)-OH; disulfide 2-10)"
Yes,6.65,–,–,–,"C[C@@H](O)[C@@H]1NC(=O)[C@@H](NC(=O)[C@@H](N)Cc2c[nH]c3ccccc23)CSSC[C@@H](C(=O)NCC(=O)NCC(=O)NCC(=O)N[C@@H](CO)C(=O)N[C@@H](CCCCNC(=O)CCCC[C@@H]2SC[C@@H]3NC(=O)N[C@@H]32)C(=O)O)NC(=O)[C@H](CCC(N)=O)NC(=O)[C@@H]2CCCN2C(=O)[C@H](CC(=O)O)NC(=O)CNC(=O)[C@@H]2CCCN2C(=O)[C@H](CCCNC(=N)N)NC1=O [aCD3-04-006, WCTRPGDPQC-GGGS-K(Bio)] (H-WCTRPGDPQCGGGSK(Biotin)-OH; disulfide 2-10)"
